Non-standard residues stand in square brackets, D forms with d. Residues, ends and D or L forms follow the SMILES beside them. No end group written: not given here. *: point of attachment. 4Abz = Nc1ccc(C(=O)O)cc1; Nphe = O=C(O)CNCc1ccccc1; Bz = O=C(c1ccccc1)*; CH2Cl = ClC*

The first experiment addresses T1, ICE (Homo sapiens, UniProt P29466).
T1 construct: The active enzyme exists as a tetramer of two p20 and two p10 subunits
T1 sequence (P29466 120-297 limits assumed): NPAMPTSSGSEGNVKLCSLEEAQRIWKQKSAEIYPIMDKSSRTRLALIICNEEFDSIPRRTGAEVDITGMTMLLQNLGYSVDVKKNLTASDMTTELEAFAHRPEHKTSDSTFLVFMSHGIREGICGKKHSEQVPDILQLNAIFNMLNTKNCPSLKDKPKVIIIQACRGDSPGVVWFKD
T1 sequence (P29466 317-404 limits assumed): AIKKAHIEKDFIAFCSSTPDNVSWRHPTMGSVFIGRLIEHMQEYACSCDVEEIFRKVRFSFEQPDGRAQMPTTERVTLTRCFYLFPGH
The experiment can be described thus: Inhibition of ICE: enzyme assay with UV-visible substrate (Succinyl-Tyr-Val-Ala-Asp-pNitroanilide). It is filed as biochemical. The settings on record: UV-visible substrate assay of Example 1; pH 8.1, 37° C., 80 μM substrate. The source says:
The term "Ki " refers to a numerical measure of the effectiveness of a compound in inhibiting the activity of a target enzyme such as ICE. Lower values of Ki reflect higher effectiveness. The Ki value is a derived by fitting experimentally determined rate data to standard enzyme kinetic equations (see I. H. Segel, Enzyme Kinetics, Wiley-Interscience, 1975).
1. Enzyme assay with UV-visible substrate
This assay is run using an Succinyl-Tyr-Val-Ala-Asp-pNitroanilide substrate. Synthesis of analogous substrates is described by L. A. Reiter (Int. J. Peptide Protein Res. 43, 87-96 (1994)). The assay mixture contains:
65 μl buffer (10 mM Tris, 1 mM DTT, 0.1% CHAPS @pH 8.1)
10 μl ICE (50 nM final concentration to give a rate of ~1 mOD/min)
5 μl DMSO/Inhibitor mixture 20 μl 400 μM Substrate (80 μM final concentration)
100 μl total reaction volume
The visible ICE assay is run in a 96-well microtiter plate. Buffer, ICE and DMSO (if inhibitor is present) are added to the wells in the order listed. The components are left to incubate at room temperature for 15 minutes starting at the time that all components are present in all wells. The microtiter plate reader is set to incubate at 37° C. After the 15 minute incubation, substrate is added directly to the wells and the reaction is monitored by following the release of the chromophore (pNA) at 405-603 nm at 37° C. for 20 minutes. A linear fit of the data is performed and the rate is calculated in mOD/min. DMSO is only present during experiments involving inhibitors, buffer is used to make up the volume to 100 μl in the other experiments.
The following Ki values were determined for compounds 706, 710, 719, 720, 725-727, 729, 731, 733, 743, 745, and 747-757 using the assay described in Example 1.
Usually Ki stands for the equilibrium dissociation constant of an inhibitor or competing ligand from its target. On to `CC(C)[C@H](NC(=O)c1ccccc1)C(=O)N(CC(=O)N[C@H](C=O)CC(=O)O)Cc1ccccc1` [Compound 706, 3(S)-(2-((2(S)-Benzoylamino-3-methylbutyryl)benzylamino)acetylamino)-4-oxo-butyric Acid] (Bz-Val-[Nphe]-Asp-aldehyde), for which the inhibition constant (Ki) was determined as 69 nM. The same measure, in the same setting: to `CC(C)[C@H](NC(=O)OCc1ccccc1)C(=O)N(CC(=O)N[C@H](C=O)CC(=O)O)C1Cc2ccccc2C1` [Compound 757, 3(S)-(2-((2(S)-(Benzyloxycarbonylamino-3-methylbutyryl)-indan-2-yl)amino)acetylamino)-4-oxobutyric Acid] belongs 170 nM; to `CC(C)[C@H](NC(=O)c1ccccc1)C(=O)N(CC(=O)N[C@@H](CC(=O)O)C(=O)c1nc2cc(F)cc(F)c2o1)C1Cc2ccccc2C1` [Compound 726], 15 nM. On the same count and under the same terms, then `CC(C)[C@H](NC(=O)c1ccc(Cl)cc1)C(=O)N(CC(=O)N[C@@H](CC(=O)O)C(=O)c1ncc(-c2c(Cl)cccc2Cl)o1)C1Cc2ccccc2C1` [Compound 733], with 7.5 nM; and `CC(=O)Nc1cccc(CN(CC(=O)N[C@H](C=O)CC(=O)O)C(=O)[C@@H](NC(=O)c2ccccc2)C(C)C)c1` [Compound 743, 3(S)-(2-((3-Acetylaminobenzyl)-(2(S)-benzoylamino-3-methylbutyryl)amino)acetylamino)-4-oxo-butyric Acid], with 60 nM; and `CC(C)[C@H](NC(=O)c1ccc(Cl)cc1)C(=O)N(CC(=O)N[C@H](C=O)CC(=O)O)Cc1ccccc1` [Compound 750, 3(5)-(2-((2(S)-(4-Chlorobenzoyl)amino-3-methylbutyryl)benzylamino)acetylamino)-4-oxo-butyric Acid], with 90 nM. `CC(C)[C@H](NC(=O)C(=O)c1ccccc1)C(=O)N(CC(=O)N[C@H](C=O)CC(=O)O)Cc1ccccc1` [Compound 753, 3(S)-(2(S)-(Benzyl(3-methyl-2-(2-oxo-2-phenylacetylamino)butyryl)amino)acetylamino)-4-oxo-butyric Acid] gave a Ki of 53 nM. As for `CC(C)[C@H](NC(=O)c1ccccc1)C(=O)N(CC(=O)N[C@@H](CC(=O)O)C(=O)c1nc2cc(Cl)cc(Cl)c2o1)Cc1cccnc1` [Compound 720], the Ki was 33 nM.

Turning to `CC(C)[C@H](NC(=O)c1nccc2ccccc12)C(=O)N(CC(=O)N[C@@H](C=O)CCC(=O)O)Cc1ccccc1` [Compound 755, 4(R)-(2(S)-(Benzyl-(2-((isoquinoline-1-carbonyl)amino)-3-methylbutyryl)amino)acetylamino)-5-oxopentanoic Acid], the affinity corresponds to a Ki of 390 nM. The molecule `CC(C)[C@H](NC(=O)c1nccc2ccccc12)C(=O)N(CC(=O)N[C@H](C=O)CC(=O)O)Cc1ccccc1` [Compound 748, 3(S)-(2(S)-(Benzyl-(2-((isoquinoline-1-carbonyl)amino)-3-methylbutyryl)amino)acetylamino)-4-oxo-butyric Acid] showed a Ki of 6 nM. Still for that read-out and setting: to `CC(C)(C)[C@H](NC(=O)c1nccc2ccccc12)C(=O)N(CC(=O)N[C@H](C=O)CC(=O)O)Cc1ccccc1` [Compound 747, 3(S)-(2(S)-(Benzyl-(2-((isoquinoline-1-carbonyl)amino)-3,3-dimethylbutyryl)amino)acetylamino)-4-oxo-butyric Acid] belongs 24 nM; to `CC(C)[C@H](NC(=O)c1ccccc1)C(=O)N(CC(=O)N[C@H](C=O)CC(=O)O)Cc1cccc(NS(C)(=O)=O)c1` [Compound 745], 45 nM; to `CC(C)[C@H](NC(=O)c1ccccc1)C(=O)N(CC(=O)N[C@@H](C=O)CCC(=O)O)Cc1ccccc1` [Compound 754, 4(R)-(2(S)-((2-Benzoylamino-3-methylbutyryl)benzylamino)acetylamino)-5-oxopentanoic Acid] (Bz-Val-[Nphe]-[dE]-aldehyde), 2500 nM.

On to `CC(C)[C@H](NC(=O)c1ccccc1)C(=O)N(CC(=O)N[C@@H](CC(=O)O)C(=O)c1nc2cc(F)cc(Cl)c2o1)Cc1ccccc1` [Compound 719], for which the Ki stood at 20 nM. On the same count and under the same terms, then `CC(C)[C@H](NC(=O)c1cccc2ccccc12)C(=O)N(CC(=O)N[C@H](C=O)CC(=O)O)Cc1ccccc1` [Compound 749, 3(S)-(2(S)-(Benzyl-(2-((napthalene-1-carbonyl)amino)-3-methylbutyryl)amino)acetylamino)-4-oxo-butyric Acid], with 7 nM.

For the molecule `COc1cc(C(=O)C(=O)N[C@H](C(=O)N(CC(=O)N[C@H](C=O)CC(=O)O)Cc2ccccc2)C(C)C)cc(OC)c1OC` [Compound 752], the affinity, expressed as Ki, was 62 nM. On the same count and under the same terms, to `CC(=O)Nc1ccc(C(=O)N[C@H](C(=O)N(CC(=O)N[C@H](C=O)CC(=O)O)Cc2ccccc2)C(C)C)cc1` [Compound 751, 3(S)-(2-((2(S)-(4-Acetylaminobenzoyl)amino-3-methylbutyryl)benzylamino)acetylamino)-4-oxo-butyric Acid] (Ac-[4Abz]V[Nphe]D-aldehyde) belongs 71 nM.

The subject of another experiment is primary cells or cell lines.
Assay: not given
The settings on record: inhibition of one or more ICE homologs; cited from earlier work.
As for “Tyr-Val-Ala-Asp-chloromethylketone (YVAD-CH2Cl)”, the inhibition of apoptosis result was “inhibition of apoptosis”.

Source of the values: US5843904A, “Inhibitors of interleukin-1βconverting enzyme” (Vertex Pharmaceuticals, Inc., priority 1995, dated 1998).
